Among the data in patent publication US10738043B2, “GLS1 inhibitors for treating disease” (Board of Regents, The University of Texas System, priority 2015, dated 2020) are IC50 and EC50 values, retold here.

The target of assay [1] is T1, GLS1 (purified recombinant human GAC) (Homo sapiens, UniProt O94925).
T1 sequence (O94925 55-598 isoform O94925-3 limits assumed): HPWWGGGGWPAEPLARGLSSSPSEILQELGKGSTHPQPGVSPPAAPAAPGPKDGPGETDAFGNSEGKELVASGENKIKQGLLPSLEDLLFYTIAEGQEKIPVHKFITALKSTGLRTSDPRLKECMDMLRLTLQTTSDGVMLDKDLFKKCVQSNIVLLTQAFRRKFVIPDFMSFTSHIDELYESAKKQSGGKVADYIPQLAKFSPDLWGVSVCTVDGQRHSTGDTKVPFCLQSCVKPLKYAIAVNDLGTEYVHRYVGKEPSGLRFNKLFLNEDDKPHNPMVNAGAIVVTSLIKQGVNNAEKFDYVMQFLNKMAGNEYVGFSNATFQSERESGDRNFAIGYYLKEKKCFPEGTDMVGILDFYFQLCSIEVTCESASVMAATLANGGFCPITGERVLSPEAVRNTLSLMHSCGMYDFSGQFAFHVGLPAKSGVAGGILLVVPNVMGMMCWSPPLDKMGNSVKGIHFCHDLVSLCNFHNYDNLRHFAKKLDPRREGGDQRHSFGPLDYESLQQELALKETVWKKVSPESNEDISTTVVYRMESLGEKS
Kind of assay: GLS1 Enzymatic Activity Assay (dual-coupled enzymatic assay). To be noted: 50 mM potassium phosphate, 1 mM glutamine, read-out: IC50 against GLS1. Type of assay: biochemical. As for the experimental part: GLS1 Enzymatic Activity Assay
The inhibition of purified recombinant human GAC by varying concentrations of inhibitors is assessed via a dual-coupled enzymatic assay. The glutamate produced by the glutaminase reaction is used by glutamate oxidase to produce α-ketoglutarate, ammonia, and hydrogen peroxide, with this hydrogen peroxide subsequently being used by horseradish peroxidase to produce resorufin in the presence of Amplex UltraRed. The assay buffer consisted of 50 mM HEPES (pH 7.4), 0.25 mM EDTA and 0.1 mM Triton X-100. GAC was incubated with potassium phosphate (10 minutes at room temperature) prior to incubation with inhibitor (10 minutes at room temperature). The final reaction conditions were as follows: 2 nM GAC, 50 mM potassium phosphate, 100 mU/ml glutamate oxidase (Sigma), 1 mM glutamine (Sigma), 100 mU/ml horseradish peroxidase (Sigma), 75 μM Amplex UltraRed (Life Technologies), and 1% (v/v) DMSO. The production of resorufin was monitored on a Perkin Elmer Envision plate reader (excitation 530 nm, emission 590 nm) either in a kinetics or endpoint mode (at 20 minutes). IC50 values were calculated using a four-parameter logistic curve fit.

The test system of a further assay is A549 cells. Nature of the assay: Proliferation Assay (A549 viability, Cell Titer Fluor, 72 hours). To be noted: read-out: EC50 against A549 cell proliferation. Type of assay: cell-based. As for the experimental part: A549 cells were routinely maintained in RPMI 1640 media (Gibco catalog number 11875-093) supplemented with 10% dialyzed fetal bovine serum using a humidified incubator (37° C., 5% CO2 and ambient O2). In preparation for the viability assay, cells were inoculated into 384-well black CulturPlates (Perkin Elmer) at a density of 1000 cells/well in a volume of 40 μl. Following a 24-hour incubation at 37° C., 5% CO2 and ambient 02, cells were treated with compound (10 μl) in a final DMSO concentration of 0.5% (v/v). The microplates were then incubated for 72 hours (37° C., 5% CO2 and ambient O2). Cell Titer Fluor (Promega) was subsequently added (10 μl of 6× reagent) and mixed for 15 minutes at room temperature. The plates were then incubated for 30 minutes (37° C., 5% CO2 and ambient O2) and fluorescence was subsequently read on the Perkin Elmer Envision plate reader. EC50 values were calculated using a four-parameter logistic curve fit.

The term IC50 denotes the concentration that inhibits the measured activity by half.

Where two headings read alike, the source gives them in different places.

In the case of `O=C(Cc1ccccn1)Nc1ccc(N2CCC(c3nnc(NC(=O)Cc4cccc(OC(F)(F)F)c4)s3)C2)nn1` (stereo not drawn) [Example 42, 2-(pyridin-2-yl)-N-(6-(3-(5-(2-(3-(trifluoromethoxy)phenyl)acetamido)-1,3,4-thiadiazol-2-yl)pyrrolidin-1-yl)pyridazin-3-yl)acetamide], in assay [1], the IC50 is < 100 nM. In the assay on A549 cells (Homo sapiens), the EC50 fell in the range of 100 to 500 nM.

In the case of `O=C(Cc1ccccn1)Nc1ccc(C2CCN(c3nnc(C(=O)NCc4cccc(OC(F)(F)F)c4)s3)C2)nn1` (stereo not drawn) [Example 43, 5-(3-(6-(2-(pyridin-2-yl)acetamido)pyridazin-3-yl)pyrrolidin-1-yl)-N-(3-(trifluoromethoxy)benzyl)-1,3,4-thiadiazole-2-carboxamide], the IC50 in assay [1] is < 100 nM. The EC50 with A549 cells (Homo sapiens) was < 100 nM.

With `O=C(Cc1ccccn1)Nc1ccc([C@@H]2CCN(c3nnc(C(=O)NCc4cc(C(F)(F)F)ccn4)s3)C2)nn1` [Example 44, (R)-5-(3-(6-(2-(pyridin-2-yl)acetamido)pyridazin-3-yl)pyrrolidin-1-yl)-N-((4-(trifluoromethyl)pyridin-2-yl)methyl)-1,3,4-thiadiazole-2-carboxamide], the IC50 in assay [1] was < 100 nM. The EC50 in the assay on A549 cells (Homo sapiens) is < 100 nM.

On to `O=C(Cc1ccccn1)Nc1ccc([C@@H]2CCN(c3nnc(C(=O)NCc4ccccn4)s3)C2)nn1` [Example 46, (R)-5-(3-(6-(2-(pyridin-2-yl)acetamido)pyridazin-3-yl)pyrrolidin-1-yl)-N-(pyridin-2-ylmethyl)-1,3,4-thiadiazole-2-carboxamide], for which the IC50 in assay [1] is < 100 nM. Further, the EC50 in the assay with A549 cells (Homo sapiens) was < 100 nM.

On to `O=C(Cc1ccccn1)Nc1ccc([C@@H]2CCN(c3nnc(C(=O)NCc4cc(C5CC5)ccn4)s3)C2)nn1` [Example 47, (R)-N-((4-cyclopropylpyridin-2-yl)methyl)-5-(3-(6-(2-(pyridin-2-yl)acetamido)pyridazin-3-yl)pyrrolidin-1-yl)-1,3,4-thiadiazole-2-carboxamide], for which the IC50 in assay [1] is < 100 nM. In addition, the EC50 in the assay on A549 cells (Homo sapiens) is < 100 nM.

On to `Cc1cc(C(F)(F)F)cc(CNC(=O)c2nnc(N3CC[C@@H](c4ccc(NC(=O)Cc5ccccn5)nn4)C3)s2)n1` [Example 48, (R)-N-((6-methyl-4-(trifluoromethyl)pyridin-2-yl)methyl)-5-(3-(6-(2-(pyridin-2-yl)acetamido)pyridazin-3-yl)pyrrolidin-1-yl)-1,3,4-thiadiazole-2-carboxamide], for which, in assay [1], the half-maximal inhibitory concentration (IC50) was < 100 nM. Moreover, in the assay on A549 cells (Homo sapiens), the EC50 was < 100 nM.

On to `Cc1cccc(CC(=O)Nc2ccc(C3CCN(c4nnc(C(=O)NCc5cc(C(F)(F)F)ccn5)s4)C3)nn2)n1` (stereo not drawn) [Example 49, 5-(3-(6-(2-(6-methylpyridin-2-yl)acetamido)pyridazin-3-yl)pyrrolidin-1-yl)-N-((4-(trifluoromethyl)pyridin-2-yl)methyl)-1,3,4-thiadiazole-2-carboxamide], for which, in assay [1], the IC50 was < 100 nM. The EC50 in the assay on A549 cells (Homo sapiens) was < 100 nM.

Take `Cc1cccc(CNC(=O)c2nnc(N3CCC(c4ccc(NC(=O)Cc5cccc(C)n5)nn4)C3)s2)n1` (stereo not drawn) [Example 50, 5-(3-(6-(2-(6-methylpyridin-2-yl)acetamido)pyridazin-3-yl)pyrrolidin-1-yl)-N-((6-methylpyridin-2-yl)methyl)-1,3,4-thiadiazole-2-carboxamide]: in assay [1], the IC50 was < 100 nM. For the same molecule, the EC50 in the assay on A549 cells (Homo sapiens) is < 100 nM.

For `Cc1cc(OC2CC(F)(F)C2)cc(CC(=O)Nc2ccc(C3CCN(c4nnc(C(=O)NCc5ccccn5)s4)C3)nn2)n1` (stereo not drawn) [Example 51, 5-(3-(6-(2-(4-(3,3-difluorocyclobutoxy)-6-methylpyridin-2-yl)acetamido)pyridazin-3-yl)pyrrolidin-1-yl)-N-(pyridin-2-ylmethyl)-1,3,4-thiadiazole-2-carboxamide], the IC50 in assay [1] is < 100 nM. In addition, the EC50 in the assay with A549 cells (Homo sapiens) was < 100 nM.

Consider `Cc1cc(OC2CC(F)(F)C2)cc(CC(=O)Nc2ccc(C3CCN(c4nnc(C(=O)NCc5cc(C(F)(F)F)ccn5)s4)C3)nn2)n1` (stereo not drawn) [Example 52, 5-(3-(6-(2-(4-(3,3-difluorocyclobutoxy)-6-methylpyridin-2-yl)acetamido)pyridazin-3-yl)pyrrolidin-1-yl)-N-((4-(trifluoromethyl)pyridin-2-yl)methyl)-1,3,4-thiadiazole-2-carboxamide], for which the IC50 in assay [1] was < 100 nM. Further, in the assay on A549 cells (Homo sapiens), the EC50 was < 100 nM.

On to `Cc1cccc(CNC(=O)c2nnc(N3CCC(c4ccc(NC(=O)Cc5cc(OC6CC(F)(F)C6)cc(C)n5)nn4)C3)s2)n1` (stereo not drawn) [Example 53, 5-(3-(6-(2-(4-(3,3-difluorocyclobutoxy)-6-methylpyridin-2-yl)acetamido)pyridazin-3-yl)pyrrolidin-1-yl)-N-((6-methylpyridin-2-yl)methyl)-1,3,4-thiadiazole-2-carboxamide], for which, in assay [1], the IC50 was < 100 nM. In the assay on A549 cells (Homo sapiens), the EC50 was < 100 nM.

Turning to “N-(pyridin-2-ylmethyl)-5-(1-(6-(2-(3-(trifluoromethoxy)phenyl)acetamido)pyridazin-3-yl)pyrrolidin-3-yl)-1,3,4-thiadiazole-2-carboxamide-2,2,2-trifluoroacetate [Example 10]”, the IC50 in assay [1] was < 100 nM. In the assay with A549 cells, the EC50 is 100 to 500 nM.
